Assay results from patent US20260131020A1, “IONIZABLE CATIONIC LIPID FOR RNA DELIVERY” (Arcturus Therapeutics, Inc., priority 2016, published 2026).

Assays:
[1] = Titration of lipids to measure pKa; type: physicochemical; settings: lipids titrated
From the text: The lipids were titrated to measure their pKa values.

mouse epo mRNA = test: In vivo EPO mRNA stability: epo mRNA levels after injection of lipid encapsulated mouse epo mRNA; design: species or system Female Balb/c mice; settings: nanoparticles with the cationic lipid, i.v. tail vein, 0.03 and 0.1 mg/kg mRNA, blood at 6 hours; FIG. 14
Protocol: Levels of mRNA in plasma were measured and compared following injection of nanoparticles comprising different cationic lipids. Female Balb/c mice (6-8 week old) were used for evaluation of plasma erythropoietin (epo) levels in vivo following injection of lipid encapsulated mouse epo mRNA. All formulations were administered intravenously via tail vein injection at a dose of 0.03 and 0.1 mg/kg at a dosing volume of 5 ml/kg. Terminal blood collection was performed via cardiac puncture under 2% isoflurane at 6 hours after formulation injections. Blood was collected into 0.109 M citrate buffer tube and processed by centrifugation at 5000 rpm for 10 minutes. Serum was collected and epo mRNA levels were analyzed. Results are shown at FIG. 14.

epo protein = test: In vivo epo protein expression after delivery of lipid encapsulated mouse epo mRNA (epo ELISA); design: species or system Female Balb/c mice; settings: mouse epo mRNA nanoparticles, i.v. tail vein, at 0.1 mg/kg (so in the source), serum at 6 hours; FIG. 16
Protocol: Female Balb/c mice (6-8 week old) were used for evaluation of epo protein expression in vivo following delivery of lipid encapsulated mouse epo mRNA. All formulations were administered intravenously via tail vein injection at a dose of 0.03 and 0.1 mg/kg at a dosing volume of 5 mL/kg. Terminal blood collection was performed via cardiac puncture under 2% isoflurane at 6 hours after formulation injections. Blood was collected into 0.109 M citrate buffer tube and processed by centrifugation at 5000 rpm for 10 minutes. Serum was collected and epo protein levels were analyzed by epo ELISA assay (R&D systems). A standard curve was constructed using samples from PBS-injected mice and relative epo expression was determined by comparing treated groups to untreated PBS control.

Factor VII = test: In vivo mouse Factor VII siRNA knockdown (chromogenic assay of plasma Factor VII protein); design: species or system Female C57BL/6 mice; settings: Factor VII siRNA formulations, i.v. tail vein, both at 0.03 and 0.1 mg/kg, plasma at 48 hours; FIG. 15
Protocol: Using a liver-directed in vivo screen of the liposome libraries, a series of compounds were tested that facilitate high levels of siRNA mediated gene silencing in hepatocytes, the cells comprising the liver parenchyma. Factor VII, a blood clotting factor, is a suitable target gene for assaying functional siRNA delivery to liver. Because this factor is produced specifically in hepatocytes, gene silencing indicates successful delivery to parenchyma, as opposed to delivery to the cells of the reticulo-endothelial system (e.g., Kupffer cells). Furthermore, Factor VII is a secreted protein that can be readily measured in serum, obviating the need to euthanize animals. Silencing at the mRNA level can be readily determined by measuring levels of protein. This is because the protein's short half-life (2-5 hour). Compositions with siRNA directed to Factor VII were formulated with ATX-002, ATX-57, and ATX-58, and comparator sample phosphate-buffered saline (PBS). Female C57BL/6 mice (6-8 week old) were used for FVII siRNA knockdown (KD) experiments. […] Plasma was collected and Factor VII protein levels were analyzed by chromogenic assay (Biophen FVII, Aniara Corporation). A standard curve was constructed using samples from PBS-injected mice and relative Factor VII expression was determined by comparing treated groups to untreated PBS control.

Structure (SMILES) | pKa [1] | epo mRNA levels compared with ATX-2 (mouse epo mRNA) | epo expression compared with ATX-2 (epo protein) | Factor VII knockdown activity compared with ATX-002 (Factor VII)
CCCCCC/C=C\COC(=O)CCCCCN(CCCC(=O)OC(CCCCCC)CCCCCC)C(=O)SCCN(C)C [ATX-84] | 6.1 | substantial improvement over ATX-2 | – | –
CCCCCC/C=C\COC(=O)CCCN(CCCC(=O)OC(CCCCCCC)CCCCCCCC)C(=O)SCCN(C)C (centres unmarked) [ATX-57] | 6 | substantial improvement over ATX-2 | substantially higher amounts | substantially more effective than ATX-002
CCCCCC/C=C\COC(=O)CCCN(CCCC(=O)OC(CCCCCCC)CCCCCCC)C(=O)SCCN(C)C [ATX-81] | 5.9 | substantial improvement over ATX-2 | – | –
CCCCCC/C=C\COC(=O)CCCCCN(CCC(=O)OC(CCCCCCC)CCCCCCC)C(=O)SCCN(C)C [ATX-82] | – | substantial improvement over ATX-2 | – | –
CCCCCC/C=C\COC(=O)CCCN(CCCC(=O)OC(CCCCCC)CCCCCC)C(=O)SCCN(C)C [ATX-86] | – | substantial improvement over ATX-2 | – | –
CCCCCC/C=C\COC(=O)CCCN(CCCC(=O)OC(CCCCCC)CCCCCCC)C(=O)SCCN(C)C (centres unmarked) [ATX-58] | 6.1 | – | – | substantially more effective than ATX-002
CCCCCC/C=C\COC(=O)CCCN(CCCC(=O)OC(CCCCCCCC)CCCCCCCC)C(=O)SCCN(C)C [ATX-87] | – | substantial improvement over ATX-2 | – | –
CCCCCC/C=C\COC(=O)CCCCCN(CCCC(=O)OC(CCCCCCC)CCCCCCC)C(=O)SCCN(C)C [ATX-83] | – | substantial improvement over ATX-2 | – | –
